This is an account of results in patent US12709609B2, “Crystalline form of Selinexor” (Karyopharm Therapeutics Inc., priority 2020, dated 2026).

Series [1] is described as follows: Dynamic vapor sorption (DVS) moisture sorption isotherm. It counts as physicochemical. As for the experimental part: Sorption isotherms were obtained using a SMS DVS Intrinsic moisture sorption analyser, controlled by DVS Intrinsic Control software. The sample temperature was maintained at 25° C. by the instrument controls. The humidity was controlled by mixing streams of dry and wet nitrogen, with a total flow rate of 200 ml/min. The relative humidity was measured by a calibrated Rotronic probe (dynamic range of 1.0-100% RH), located near the sample. The weight change, (mass relaxation) of the sample as a function of % RH was constantly monitored by a microbalance (accuracy±0.005 mg). Typically, 5 to 30 mg of sample was placed in a tared mesh stainless steel basket under ambient conditions. The sample was loaded and unloaded at 40% RH and 25° C. (typical room conditions). A moisture sorption isotherm was performed as outlined below (2 scans per complete cycle). The standard isotherm was performed at 25° C. at 10% RH intervals over a 0-90% RH range. Typically, a double cycle (4 scans) was carried out. Data analysis was carried out within Microsoft Excel using the DVS Analysis Suite. [table] The sample was recovered after completion of the isotherm and re-analysed by XRPD.

A short description of series [2]: Thermogravimetric analysis (TGA). The following applies: from ambient temperature to about 200° C., followed by sample degradation. It counts as physicochemical. The protocol:
TGA data were collected on a TA Instruments Q500 TGA, equipped with a 16 position auto-sampler. Typically, 5-10 mg of each sample was loaded onto a pre-tared aluminum DSC pan and heated to 10° C./min from ambient temperature to 350° C. A nitrogen purge at 60 ml/min was maintained over the sample. The instrument control software was Advantage for Q Series and Thermal Advantage and the data were analysed using Universal Analysis or TRIOS

On to `O=C(/C=C\n1cnc(-c2cc(C(F)(F)F)cc(C(F)(F)F)c2)n1)NNc1cnccn1` [crystalline Form ZL, (Z)-3-(3-(3,5-bis(trifluoromethyl)phenyl)-1H-1,2,4-triazol-1-yl)-N′-(pyrazin-2-yl) acrylohydrazide], for which, in series [1] (after DVS cycle 0-90% RH), the “XRPD pattern after the DVS cycle compared with XRPD prior to the DVS cycle (form stability)” value is reported as “identical”. For the same compound, the DVS weight gain result in series [1] (at 90% RH, 25° C., two DVS cycles) is listed as “about 0.16%”. For the same compound, the “moisture uptake behaviour in DVS” value in series [1] (over 0-90% RH range) is “gradual reversible uptake”. The “TGA weight change on heating” value in series [2] is “No weight change”.
